{
  "source": "patent US20240150342A1",
  "about": "“ESTROGEN-RELATED RECEPTOR ALPHA MODULATORS” (LEAD PHARMA HOLDING B.V., priority 2019, published 2024)",
  "data": [
    {"target": "T1, ERRα ligand binding domain (ERRα-LBD) (Homo sapiens, UniProt P11474)", "T1 construct": "made in house; host or cells: E. coli", "T1 sequence (P11474 193-421 limits assumed)": "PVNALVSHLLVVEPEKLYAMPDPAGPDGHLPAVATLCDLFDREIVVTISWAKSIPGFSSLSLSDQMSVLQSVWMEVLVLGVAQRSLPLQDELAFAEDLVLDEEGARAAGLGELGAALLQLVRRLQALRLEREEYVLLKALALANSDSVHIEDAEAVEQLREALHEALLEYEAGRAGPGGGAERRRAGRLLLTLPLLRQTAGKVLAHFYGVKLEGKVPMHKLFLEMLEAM", "experiment": "ERRα AlphaScreen Assay", "type": "biochemical", "conditions": "disruption of binding of ERRα-LBD protein to biotin-PGC1α-3 co-activator peptide; read-out: mean pIC50 (converted)", "description": "This assay was based on the knowledge that nuclear receptors interact with cofactors in a ligand dependent matter. The sites of interaction have been mapped to LXXLL motifs that are present in the co-activator sequences. Short peptide sequences that contain the LXXLL motif mimic the behavior of full length co-activators.\nThe ERRα AlphaScreen Assay described here relies on the interaction of the co-activator peptide with purified bacterial- expressed ERRα ligand binding domain (ERRα-LBD); upon ligand binding, the ERRα protein can undergo a conformational change resulting in a loss of co-activator binding.\nCompounds of the present invention were tested for their ability to disrupt binding of ERRα-LBD protein to co-activator peptide using AlphaScreen® Technology (Perkin Elmer). ERRα-LBD protein was expressed in E. coli as a 6×His Small Ubiquitin-like Modifier (SUMO) fusion. Bacterial expressed 6His-SUMO-ERRα-LBD protein was purified using affinity chromatography. All experiments were performed at room temperature in 384-well white non-binding plates (Greiner) using 50 mM Tris-HCl pH 7.5, 100 mM NaCl, 0.1% Pluronic F-127, 0.05% BSA and 5 mM TCEP as the buffer. Final DMSO concentration was 1% in the assay. Compounds were assayed in triplicate and: incubated with 0.81 nM ERRα-LBD protein and 10 μg/mL streptavidin donor beads and 10 μg/mL Ni-chelate acceptor beads for 1 hour at room temperature; followed by a 2-hour incubation with 15 nM biotin-PGC1α-3 peptide (QRRPCSELLKYLTTNDDPP) corresponding to amino acids 202 to 220.\nThe AlphaScreen signal was measured using an Envision Xcite plate reader (Perkin Elmer). Data was normalized, and curve fitting analysis was performed in GraphPad Prism 7 using a four-parameter dose-response fit.", "units": {"IC50": "nM"}, "values": [
      {"compound": "COc1cc(C2CC(=O)Nc3n[nH]cc32)ccc1Oc1cccc2c1OC(C)(C)C2", "note": "(centres unmarked) [Example 48, 4-{4-[(2,2-dimethyl-2,3-dihydro-1-benzofuran-7-yl)oxy]-3-methoxyphenyl}-2H,4H,5H,6H,7H-pyrazolo[3,4-b]pyridin-6-one]", "IC50": "10 to 100"},
      {"compound": "COc1cc(C2CC(=O)Nc3n[nH]cc32)ccc1Oc1ccc2c(c1)CCC2", "note": "(centres unmarked) [Example 49, 4-[4-(2,3-dihydro-1H-inden-5-yloxy)-3-methoxyphenyl]-2H, 4H, 5H, 6H,7H-pyrazolo[3,4-b]pyridin-6-one]", "IC50": "100 to 1000"},
      {"compound": "COc1cc(Oc2ccc(C3CC(=O)Nc4n[nH]cc43)cc2Br)cc(C(F)(F)F)c1", "note": "(centres unmarked) [Example 52, 4-{3-bromo-4-[3-methoxy-5-(trifluoromethyl)phenoxy]phenyl}-2H,4H,5H,6H,7H-pyrazolo[3,4-b]pyridin-6-one]", "IC50": "10 to 100"},
      {"compound": "CC(C)(C)c1cc(C#N)ccc1Oc1ccc(C2CC(=O)Nc3n[nH]cc32)cc1", "note": "(centres unmarked) [Example 53, 3-tert-butyl-4-(4-{6-oxo-2H,4H,5H,6H,7H-pyrazolo[3,4-b]pyridin-4-yl}phenoxy)benzonitrile]", "IC50": "10 to 100"},
      {"compound": "COc1cc(Oc2ccc(C3CC(=O)Nc4n[nH]cc43)cc2)cc(C(F)(F)F)c1", "note": "(centres unmarked) [Example 54, 4-{4-[3-methoxy-5-(trifluoromethyl)phenoxy]phenyl}-2H,4H,5H,6H,7H-pyrazolo[3,4-b]pyridin-6-one]", "IC50": "10 to 100"},
      {"compound": "Cc1cc(C2CC(=O)Nc3n[nH]cc32)ccc1Oc1ccc(C#N)cc1C(C)(C)C", "note": "(centres unmarked) [Example 55, 3-tert-butyl-4-(2-methyl-4-{6-oxo-2H,4H,5H,6H,7H-pyrazolo[3,4-b]pyridin-4-yl}phenoxy)benzonitrile]", "IC50": "10 to 100"},
      {"compound": "COc1cc(Oc2ccc(C3CC(=O)Nc4n[nH]cc43)cc2C)cc(C(F)(F)F)c1", "note": "(centres unmarked) [Example 56, 4-{4-[3-methoxy-5-(trifluoromethyl)phenoxy]-3-methylphenyl}-2H,4H,5H,6H,7H-pyrazolo[3,4-b]pyridin-6-one]", "IC50": "10 to 100"},
      {"compound": "COc1cc(Oc2ccc(C3CC(=O)Nc4n[nH]cc43)cc2F)cc(C(F)(F)F)c1", "note": "(centres unmarked) [Example 57, 4-{3-fluoro-4-[3-methoxy-5-(trifluoromethyl)phenoxy]phenyl}-2H,4H,5H,6H,7H-pyrazolo[3,4-b]pyridin-6-one]", "IC50": "10 to 100"},
      {"compound": "O=C1CC(c2ccc(Oc3ccccc3S(F)(F)(F)(F)F)c(OC(F)(F)F)c2)c2c[nH]nc2N1", "note": "(centres unmarked) [Example 58, 4-{4-[2-(pentafluoro-λ^6-sulfanyl)phenoxy]-3-(trifluoromethoxy)phenyl}-2H,4H,5H,6H,7H-pyrazolo[3,4-b]pyridin-6-one]", "IC50": "10 to 100"},
      {"compound": "O=C1CC(c2ccc(Oc3ccccc3S(F)(F)(F)(F)F)cc2)c2c[nH]nc2N1", "note": "(centres unmarked) [Example 59, 4-{4-[2-(pentafluoro-λ^6-sulfanyl)phenoxy]phenyl}-2H,4H,5H,6H,7H-pyrazolo[3,4-b]pyridin-6-one]", "IC50": "100 to 1000"},
      {"compound": "O=C1CC(c2ccc(Oc3ccccc3C(F)(F)F)c(OC(F)(F)F)c2)c2c[nH]nc2N1", "note": "(centres unmarked) [Example 60, 4-[3-(trifluoromethoxy)-4-[2-(trifluoromethyl)phenoxy]phenyl]-2H,4H,5H,6H,7H-pyrazolo[3,4-b]pyridin-6-one]", "IC50": "100 to 1000"},
      {"compound": "COc1cc(C2CC(=O)Nc3n[nH]cc32)ccc1Oc1ccc(C(=O)O)cc1C(C)(C)C", "note": "(centres unmarked) [Example 61, 3-tert-butyl-4-(2-methoxy-4-{6-oxo-2H,4H,5H,6H,7H-pyrazolo[3,4-b]pyridin-4-yl}phenoxy)benzoic acid]", "IC50": "10 to 100"},
      {"compound": "COc1cc(C2CC(=O)Nc3n[nH]cc32)ccc1Oc1cc(C)cc(C)c1", "note": "(centres unmarked) [Example 64, 4-[4-(3,5-dimethylphenoxy)-3-methoxyphenyl]-2H,4H,5H,6H,7H-pyrazolo[3,4-b]pyridin-6-one]", "IC50": "10 to 100"},
      {"compound": "COc1cc(C2CC(=O)Nc3n[nH]cc32)ccc1Oc1ccc(C(F)(F)F)cc1C", "note": "(centres unmarked) [Example 65, 4-{3-methoxy-4-[2-methyl-4-(trifluoromethyl)phenoxy]phenyl}-2H,4H,5H,6H,7H-pyrazolo[3,4-b]pyridin-6-one]", "IC50": "100 to 1000"},
      {"compound": "COc1cc(C2CC(=O)Nc3n[nH]cc32)ccc1Oc1ccc(C)cc1C", "note": "(centres unmarked) [Example 66, 4-[4-(2,4-dimethylphenoxy)-3-methoxyphenyl]-2H,4H,5H,6H,7H-pyrazolo[3,4-b]pyridin-6-one]", "IC50": "100 to 1000"},
      {"compound": "COc1cc(-c2cc(=O)[nH]c3n[nH]cc23)ccc1Oc1ccc(C#N)cc1C(F)(F)F", "note": "[Example 71, 4-(2-methoxy-4-{6-oxo-2H,6H,7H-pyrazolo[3,4-b]pyridin-4-yl}phenoxy)-3-(trifluoromethyl)benzonitrile]", "IC50": "100 to 1000"},
      {"compound": "COC(=O)C1C(=O)Nc2n[nH]cc2C1c1ccc(Oc2cc(C(F)(F)F)cc(C(F)(F)F)c2)c(OC)c1", "note": "(centres unmarked) [Example 72, methyl 4-{4-[3,5-bis(trifluoromethyl)phenoxy]-3-methoxyphenyl}-6-oxo-2H,4H,5H,6H,7H-pyrazolo[3,4-b]pyridine-5-carboxylate]", "IC50": "100 to 1000"},
      {"compound": "COc1cc(C2CC(=O)Nc3c[nH]cc32)ccc1Oc1cc(C(F)(F)F)cc(C(F)(F)F)c1", "note": "(centres unmarked) [Example 76, 4-{4-[3,5-bis(trifluoromethyl)phenoxy]-3-methoxyphenyl},2H,3H,4H,6H-pyrrolo[3,4-b]pyridin-2-one]", "IC50": "10 to 100"},
      {"compound": "COc1cc(C2CC(=O)Nc3n[nH]cc32)ccc1Oc1cc(C(F)F)cc(C(F)(F)F)c1", "note": "(centres unmarked) [Example 77, 4-{4-[3-(difluoromethyl)-5-(trifluoromethyl)phenoxy]-3-methoxyphenyl}-2H,4H,5H,6H,7H-pyrazolo[3,4-b]pyridin-6-one]", "IC50": "10 to 100"},
      {"compound": "COc1cc(C2CC(=O)Nc3n[nH]cc32)ccc1Oc1ccc(C(F)(F)F)cc1C(F)F", "note": "(centres unmarked) [Example 78, 4-{4-[2-(difluoromethyl)-4-(trifluoromethyl)phenoxy]-3-methoxyphenyl}-2H,4H,5H,6H,7H-pyrazolo[3,4-b]pyridin-6-one]", "IC50": "10 to 100"}
    ]}
  ]
}
